Measured values reported in paper PMC6841712 (Scientific Reports, 2019).

Molecular target: T1, 145138 (Aurantiochytrium limacinum, UniProt A0A3S5XF47)
T1 construct: 6x His-tagged full-length ORF overexpressed in A. limacinum; secreted form purified from medium on Ni-Sepharose; cleaved between L159 and A160; N-terminus ALSSS; 30 kDa on SDS-PAGE
Assay: inhibition of TF-TG hydrolysis ([…],3-TF-DG release), TLC fluorescence scan
Format: biochemical
Conditions: competitive; substrate TF-TG

T1 sequence (A0A3S5XF47 160-420): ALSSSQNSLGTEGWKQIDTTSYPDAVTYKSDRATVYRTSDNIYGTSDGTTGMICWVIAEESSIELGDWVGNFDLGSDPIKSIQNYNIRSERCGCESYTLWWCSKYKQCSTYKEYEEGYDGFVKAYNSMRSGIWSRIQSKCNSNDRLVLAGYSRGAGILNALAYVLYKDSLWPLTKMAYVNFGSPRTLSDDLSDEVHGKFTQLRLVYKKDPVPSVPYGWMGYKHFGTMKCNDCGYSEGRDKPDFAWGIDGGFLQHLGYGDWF

CCCCCCCCCCCCCCCCCC(=O)O[C@H](CO)COP(=O)([O-])OCC[N+](C)(C)C [2-acyl LPC]
inhibition of TF-TG hydrolysis (1,3-TF-DG release), TLC fluorescence scan: 2-acyl LPC competitively inhibited the release of fatty acyl chain at sn-2 of TG
